How the values were obtained:
hEPO [1] = assay: IM EPO expression of LNPs containing phosphatidylcholine helper lipids; format: in vivo, female BALB/cJ mice; details: PC/CL-C formulations, helper lipid 13.5 mol %, DOPE = 1
Procedure: EPO expression studies were conducted with female BALB/cJ mice 6-8 weeks of age. Mice were dosed with […] EPO mRNA in 30 μL of LNPs by a single intramuscular (IM) injection into the gastrocnemius leg muscle. Blood samples were taken 6 and 24 hours post injection and hEPO levels were measured in the blood serum of the mice using an ELISA assay according to the manufacture's protocol. WO2022/099003 A1 also describes an in vivo assay for intramuscular administration (e.g. on page 46, paragraph [00206]).
Lipid nanoparticles were formulated containing the four lipid components shown below, complexed with a hEPO messenger RNA. • Cationic lipid CL-C, 40 mol % • Helper lipid, 13.5 mol % • Cholesterol, 44.8 mol % • DMG-PEG-2K (1,2-dimyristoyl-rac-glycero-3-methoxypolyethyleneglycol), 1.67 mol %
EPO expression studies were performed as described above in Example 3.

hEPO [2] = assay: IV delivery using phosphatidylcholine helper lipids (EPO expression); format: in vivo, female BALB/cJ mice; details: cationic lipid CL-0137, helper lipid 13.5 mol %; 0.017 μg EPO mRNA tail vein; 6 hours; DOPE = 1
Procedure: Lipid nanoparticles were formulated containing the four lipid components shown below, complexed with a hEPO messenger RNA. • Cationic lipid CL-0137, 40 mol % • Helper lipid, 13.5 mol % • Cholesterol, 44.8 mol % • DMG-PEG-2K (1,2-dimyristoyl-rac-glycero-3-methoxypolyethyleneglycol), 1.67 mol %
EPO expression studies were conducted with female BALB/cJ mice 6-8 weeks of age. Mice were dosed with 0.017 μg EPO mRNA LNPs in a volume of 5 ul by a single tail vein injection. Blood samples were taken 6 hours post injection and hEPO levels were measured in the blood serum of the mice using an ELISA assay according to the manufacture's protocol.

[3] = Dynamic light scattering of lipid nanoparticles (size, PDI); format: physicochemical
Outline: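 LNPs of cationic lipid:DMG-PEG2000:cholesterol:helper lipid at 40:1.5:30:28.5 molar ratio, made by Process A. Diluted in 10% trehalose (about 0.1 mg/ml mRNA) and sized by DLS at 173° backscatter with a 633-nm laser, giving size and PDI.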

[4] = mRNA encapsulation efficiency of lipid nanoparticles; format: physicochemical; details: for Encapsulation efficiency (EE): LNP with cationic lipid CL-A
Outline: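 Encapsulation by RiboGreen assay run with and without 0.1% Triton-X 100. LNPs made by ethanolic lipid mixing with acidic aqueous mRNA, molar ratio 40:1.5:30:28.5 (cationic lipid:DMG-PEG2000:cholesterol:helper lipid), ultrafiltered/diafiltered, stored at −80° C. Size/PdI by dynamic light scattering after dilution in 10% trehalose to about 0.1 mg/ml mRNA.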

hEPO [5] = assay: IM EPO expression of LNPs containing new helper lipids (hEPO in serum by ELISA); format: in vivo, female BALB/cJ mice; details: single IM injection; for 24-h EPO: serum 24 hours post injection
Outline: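 Female BALB/cJ mice aged 6-8 weeks received one intramuscular gastrocnemius injection of […] hEPO mRNA in 30 μL LNPs. The LNPs contained cationic lipid, phospholipid helper, cholesterol and DMG-PEG-2K at 40:30:28.5:1.5 mol %. Serum hEPO was measured by ELISA at 6 and 24 h.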

hEPO [6] = assay: IV EPO expression of LNPs (tail vein injection); format: in vivo, female BALB/cJ mice; details: cationic lipid CL-0137, helper lipid 30 mol %; 0.017 μg EPO mRNA tail vein; 6 hours; DOPE = 1
Outline: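 Female BALB/cJ mice (6-8 weeks) received a single tail-vein injection of 0.017 μg hEPO mRNA in LNPs (cationic lipid CL-0137/helper lipid/cholesterol/DMG-PEG-2K, 40:30:28.5:1.5 mol %). Serum hEPO was measured by ELISA on blood taken 6 h post-dose.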

[7] = LNP with cationic lipid CL-A, hEPO mRNA, 40:30:28.5:1.5
[8] = CL-A LNP, 0.1 μg EPO mRNA in 30 μL, serum 6 hours post injection
[9] = CL-B LNP, serum 6 hours post injection

SMILES: CCCCCCCCC(CCCCCCCC)OC(=O)CCCCCCCC(=O)OC[C@@H](COP(=O)(O)OCC[N+](C)(C)C)OC(=O)CCCCCCC(=O)OC(CCCCCCCC)CCCCCCCC [Compound 50, (S)-2-((8-(Heptadecan-9-yloxy)-8-oxooctanoyl)oxy)-3-((9-(heptadecan-9-yloxy)-9-oxononanoyl)oxy)propyl (2-(trimethylammonio)ethyl) phosphate]
- Normalized Mean EPO expression (hEPO [1]): 1
- Normalized mean IV EPO expression using PC LNPs (hEPO [2]): 1.6

SMILES: CCCCCCCCCCCCCCCC(=O)OC[C@H](COP(=O)(O)OCC[N+](C)(C)C)OC(=O)CCCCCCC(=O)OC(CCCCCCCC)CCCCCCCC [Compound 57, (R)-2-((8-(Heptadecan-9-yloxy)-8-oxooctanoyl)oxy)-3-(palmitoyloxy)propyl (2-(trimethylammonio)ethyl) phosphate]
- Normalized Mean EPO expression (hEPO [1]): 0.9

SMILES: CCCCCCCCC(CCCCCCCC)C(=O)OCCCCCC(=O)OC[C@@H](COP(=O)(O)OCC[N+](C)(C)C)OC(=O)CCCCCOC(=O)C(CCCCCCCC)CCCCCCCC [Compound 54, (S)-2,3-Bis((6-((2-octyldecanoyl)oxy)hexanoyl)oxy)propyl (2-(trimethylammonio)ethyl) phosphate]
- Normalized Mean EPO expression (hEPO [1]): 0.5
- Normalized mean IV EPO expression using PC LNPs (hEPO [2]): 0.97

SMILES: CCCCCCCCCCCCCCCCCC(=O)OC[C@H](COP(=O)([O-])OCC[N+](C)(C)C)OC(=O)CCCCCCCCCCCCCCCCC [DSPC, distearoylphosphatidylcholine, reference compound]
- Normalized mean IV EPO expression using PC LNPs (hEPO [2]): 0.89

SMILES: CCCCCCCCC(CCCCCCCC)OC(=O)CCCCCCC(=O)OCC(COP(=O)(O)OCCN(C)C)OC(=O)CCCCCCC(=O)OC(CCCCCCCC)CCCCCCCC (stereo not drawn) [Compound 12, O′^1,O^1-(3-(((2-(Dimethylamino)ethoxy)(hydroxy)phosphoryl)-oxy)propane-1,2-diyl) 8-di(heptadecan-9-yl) di(octanedioate)]
- Polydispersity Index (PDI) ([3]; LNP with cationic lipid CL-A): 0.050
- Size [3, 7]: 160 nm
- PDI ([3]; LNP with cationic lipid CL-B): 0.132
- Size ([3]; LNP with cationic lipid CL-B): 109.6 nm
- PDI ([3]; LNP with cationic lipid CL-C): 0.072
- Size ([3]; LNP with cationic lipid CL-C): 110.1 nm
- PDI ([3]; LNP with cationic lipid CL-D): 0.094
- Size ([3]; LNP with cationic lipid CL-D): 113.4 nm
- PDI ([3]; LNP with cationic lipid CL-E): 0.072
- Size ([3]; LNP with cationic lipid CL-E): 112.6 nm
- Encapsulation efficiency (EE) [4]: 93%
- EE ([4]; LNP with cationic lipid CL-B): 93%
- EE ([4]; LNP with cationic lipid CL-C): 90%
- EE ([4]; LNP with cationic lipid CL-D): 92%
- EE ([4]; LNP with cationic lipid CL-E): 91%
- 6-h EPO (hEPO [5]; [8]): 28.9209 ng/mL
- 24-h EPO (hEPO [5]; CL-A LNP): 19.526 ng/mL
- 6-h EPO (hEPO [5]; [9]): 39.6 ng/mL
- 24-h EPO (hEPO [5]; CL-B LNP): 24 ng/mL
- 6-h EPO (hEPO [5]; CL-C LNP): 26.2 ng/mL
- 6-h EPO (hEPO [5]; CL-C LNP, (6-h)): 38.4 ng/mL
- Normalized Mean IV EPO expression (hEPO [6]): 2.23

SMILES: CCCCCCCCC(CCCCCCCC)OC(=O)CCCCCCC(=O)OCC(COP(=O)(O)OCC[N+](C)(C)C)OC(=O)CCCCCCC(=O)OC(CCCCCCCC)CCCCCCCC (stereo not drawn) [Compound 24, 2-(((2,3-Bis((8-(heptadecan-9-yloxy)-8-oxooctanoyl)oxy)propoxy)(hydroxy)-phosphoryl)oxy)-N,N,N-trimethylethan-1-aminium]
- Polydispersity Index (PDI) ([3]; LNP with cationic lipid CL-A): 0.055
- Size [3, 7]: 160 nm
- PDI ([3]; LNP with cationic lipid CL-B): 0.111
- Size ([3]; LNP with cationic lipid CL-B): 107.0 nm
- PDI ([3]; LNP with cationic lipid CL-C): 0.116
- Size ([3]; LNP with cationic lipid CL-C): 108.8 nm
- Encapsulation efficiency (EE) [4]: 94%
- EE ([4]; LNP with cationic lipid CL-B): 87%
- EE ([4]; LNP with cationic lipid CL-C): 85%
- 6-h EPO (hEPO [5]; [8]): 19.2 ng/mL
- 6-h EPO (hEPO [5]; [9]): 29.4 ng/mL
- 6-h EPO (hEPO [5]; CL-C LNP, (6-h)): 19.5 ng/mL
- Normalized Mean IV EPO expression (hEPO [6]): 1.82

SMILES: CCCCCCCCC(CCCCCCCC)OC(=O)CCCCCC(=O)OCC(COP(=O)(O)OCCN(C)C)OC(=O)CCCCCC(=O)OC(CCCCCCCC)CCCCCCCC (stereo not drawn) [Compound 15, O′^1,O^1-(3-(((2-(Dimethylamino)ethoxy)(hydroxy)phosphoryl)oxy)propane-1,2-diyl) 7-di(heptadecan-9-yl) di(heptanedioate)]
- Polydispersity Index (PDI) ([3]; LNP with cationic lipid CL-A): 0.083
- Size [3, 7]: 138 nm
- PDI ([3]; LNP with cationic lipid CL-B): 0.087
- Size ([3]; LNP with cationic lipid CL-B): 110.7 nm
- PDI ([3]; LNP with cationic lipid CL-C): 0.091
- Size ([3]; LNP with cationic lipid CL-C): 108.0 nm
- Encapsulation efficiency (EE) [4]: 95%
- EE ([4]; LNP with cationic lipid CL-B): 94%
- EE ([4]; LNP with cationic lipid CL-C): 91%
- 6-h EPO (hEPO [5]; [8]): 25.3 ng/mL
- 6-h EPO (hEPO [5]; [9]): 30 ng/mL
- 6-h EPO (hEPO [5]; CL-C LNP, (6-h)): 15.2 ng/mL
- Normalized Mean IV EPO expression (hEPO [6]): 2.24

SMILES: CCCCCCCCC(CCCCC)COC(=O)CCC(=O)OCC(COP(=O)(O)OCCN(C)C)OC(=O)CCC(=O)OCC(CCCCC)CCCCCCCC (stereo not drawn) [Compound 10, O,O′-(3-(((2-(Dimethylamino)ethoxy)(hydroxy)phosphoryl)-oxy)propane-1,2-diyl) bis(2-pentyldecyl) disuccinate)]
- Polydispersity Index (PDI) ([3]; LNP with cationic lipid CL-A): 0.046
- Size [3, 7]: 171 nm
- PDI ([3]; LNP with cationic lipid CL-B): 0.086
- Size ([3]; LNP with cationic lipid CL-B): 95.9 nm
- PDI ([3]; LNP with cationic lipid CL-C): 0.022
- Size ([3]; LNP with cationic lipid CL-C): 89.3 nm
- PDI ([3]; LNP with cationic lipid CL-D): 0.129
- Size ([3]; LNP with cationic lipid CL-D): 100.5 nm
- Encapsulation efficiency (EE) [4]: 90%
- EE ([4]; LNP with cationic lipid CL-B): 83%
- EE ([4]; LNP with cationic lipid CL-C): 84%
- EE ([4]; LNP with cationic lipid CL-D): 93%
- 6-h EPO (hEPO [5]; [8]): 20.227 ng/mL
- 24-h EPO (hEPO [5]; CL-A LNP): 10.447 ng/mL
- 6-h EPO (hEPO [5]; [9]): 12.9 ng/mL
- 24-h EPO (hEPO [5]; CL-B LNP): 10.4 ng/mL
- 6-h EPO (hEPO [5]; CL-C LNP): 10.3 ng/mL
- 6-h EPO (hEPO [5]; CL-C LNP, (6-h)): 14.8 ng/mL
- Normalized Mean IV EPO expression (hEPO [6]): 1.72

SMILES: CCCCCCCCCC(CCCCCCCCC)C(=O)OCC(COP(=O)(O)OCCN)OC(=O)C(CCCCCCCCC)CCCCCCCCC (stereo not drawn) [Compound 3, 3-(((2-Aminoethoxy)(hydroxy)phosphoryl)oxy)propane-1,2-diyl bis(2-nonylundecanoate)]
- Polydispersity Index (PDI) ([3]; LNP with cationic lipid CL-A): 0.045
- Size [3, 7]: 137 nm
- PDI ([3]; LNP with cationic lipid CL-B): 0.101
- Size ([3]; LNP with cationic lipid CL-B): 116.4 nm
- PDI ([3]; LNP with cationic lipid CL-C): 0.038
- Size ([3]; LNP with cationic lipid CL-C): 111.9 nm
- Encapsulation efficiency (EE) [4]: 65%
- EE ([4]; LNP with cationic lipid CL-B): 25%
- EE ([4]; LNP with cationic lipid CL-C): 88%
- 6-h EPO (hEPO [5]; CL-C LNP): 6.3 ng/mL
- 6-h EPO (hEPO [5]; CL-C LNP, (6-h)): 13.4 ng/mL
- Normalized Mean IV EPO expression (hEPO [6]): 3.32

SMILES: CCCCCCCCC(CCCCCCCC)OC(=O)CCCCCCC(=O)OC[C@H](COP(=O)([O-])OCC[N+](C)(C)C)OC(=O)CCCCCCC(=O)OC(CCCCCCCC)CCCCCCCC [Compound 41, (R)-2,3-Bis((8-(heptadecan-9-yloxy)-8-oxooctanoyl)oxy)propyl (2-(trimethylammonio)ethyl) phosphate]
- Normalized Mean EPO expression (hEPO [1]): 1.3
- Normalized Mean IV EPO expression (hEPO [6]): 1.7
